# Results reported in publication PMC6147075, “Discovery of novel fragments inhibiting O-acetylserine sulphhydrylase by combining scaffold hopping and ligand–based drug design” (Journal of Enzyme Inhibition and Medicinal Chemistry, 2018).
# Read-outs that look alike come from different tables or passages of the source.
# Experiments:
# [1] = target: T1, OASS-A (Salmonella typhimurium, UniProt P0A1E3); assay: 96-well activity assay (cysteine-ninhydrin), OASS-A; assay type: biochemical, Salmonella enterica serovar Typhimurium; conditions: bisulfide 600 µM, OAS at Km, two replicates
# T1 construct: His6 (N, cleaved yes); made in house; host or cells: E. coli Rosetta (DE3)
# Experimental: (§1) The genes cysK and cysM encoding STOASS-A and STOASS-B, respectively, were subcloned from pET16b[34] to pET19m in order to replace the restriction site for Factor Xa with the one for TEV protease. pET19m-STcysK and pET19m-STcysM were transformed in E. coli Rosetta^TM (DE3) competent cells for protein expression. Protein expression and purification was performed following published protocols[34] with some modifications. Briefly, protein expression was induced on bacterial growth in exponential phase by IPTG for 4 and 5 h for OASS-B and OASS-A, respectively. Cells were lysed by pulsed sonication in 50 mM NaP, 300 mM NaCl, pH 7, with the addition of 1 mg/mL lysozyme. Purification was performed by immobilized metal affinity column (IMAC) on Co^2+ ions (Talon™, Clontech Laboratories, Inc., Mountain View, CA). Proteins were eluted with 250 mM (His6-OASS-A) or 600 mM (His6-OASS-B) imidazol. His-tag was removed from His6-OASS-A by treatment with TEV protease during O/N dialysis in 10 mM HEPES pH 8. His-tag was removed from His6-OASS-B by treatment with TEV protease in 20 mM HEPES, 100 mM NaCl, 1 mM TCEP pH 8 for 24 h at 5 °C. […] OASS-A was stored in 10 mM HEPES pH 8 and OASS-B in 20 mM HEPES, 100 mM NaCl, 1 mM TCEP pH 8.
# (§2) The concentration of bisulfide was saturating (600 μM), whereas the concentration of OAS was set at Km to increase the sensitivity. The dissociation constant of selected compounds for StOASS-A and OASS-B was measured by a fluorimetric method published elsewhere[23]^,[24]. Briefly, a solution containing 1 µM StOASS-A in 100 mM Hepes pH 7 was titrated with increasing concentrations of compound at 20 °C. The fluorescence emission intensity of the PLP cofactor at 505 nm upon excitation at 412 nm was collected after each addition, subtracted by the blank and normalized by the protein dilution. The dependence of the emission intensity at 505 nm on the concentration of the compound was fitted to a binding isotherm[23] to calculate the dissociation constant of the protein-ligand complex.
# [2] = target: T2, OASS-B (Salmonella typhimurium, UniProt P29848); assay: biochemical; assay type: binding; conditions: for LE (OASS-B): LE = (1.37/HA). pIC50, HA = heavy atoms
# T2 construct: His6 (N, cleaved yes); made in house; host or cells: E. coli Rosetta (DE3)
# T2 sequence (P29848 1-303): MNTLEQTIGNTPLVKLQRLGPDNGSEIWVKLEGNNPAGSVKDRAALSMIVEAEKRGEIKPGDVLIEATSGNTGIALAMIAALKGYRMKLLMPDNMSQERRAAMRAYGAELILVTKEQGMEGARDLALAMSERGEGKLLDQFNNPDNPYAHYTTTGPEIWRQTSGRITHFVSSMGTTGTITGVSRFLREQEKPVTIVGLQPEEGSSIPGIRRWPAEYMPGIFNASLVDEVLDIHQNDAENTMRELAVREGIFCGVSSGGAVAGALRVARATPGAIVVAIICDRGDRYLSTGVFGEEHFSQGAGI
# Experimental: as §1, §2
# [3] = target: T3, StOASS-A (Salmonella typhimurium, UniProt P0A1E3); assay: Fluorimetric binding titration (PLP emission), StOASS-A; parameters: species or system Salmonella enterica serovar Typhimurium; conditions: for Kd: 1 µM StOASS-A, 100 mM Hepes pH 7, 20 °C, read-out: Kd OASS-A; for LE (OASS-A): LE = (1.37/HA). pIC50, HA = heavy atoms
# T3 construct: His6 (N, cleaved yes); made in house; host or cells: E. coli Rosetta (DE3)
# Experimental: as §1, §2
# [4] = target: T2, OASS-B; assay: 96-well activity assay (cysteine-ninhydrin), OASS-B; assay type: biochemical; conditions: for % inhibition OASS-B: compound 1 µM, bisulfide 600 µM, OAS at Km, two replicates, ns = Not Significant; for inhibition at 1000 µM: read-out: % inhibition OASS-B
# Experimental: as §1, §2
# [5] = target: OASS; conditions: cited from earlier work
# [6] = system: Salmonella; assay: Activity against Salmonella in vitro; assay type: cell-based
# [7] = target: T2, OASS-B; parameters: method as in PMID 26894308; conditions: previously reported reference compound 2; cited from earlier work
# [8] = system: cell envelope of Gram-negative bacteria; conditions: not told
# [9] = compound 1 µM, ns = Not Significant
# [10] = compound 1 mM, read-out: % inhibition OASS-A
# [11] = read-out: % inhibition OASS-A, compound 1 mM
# T1 sequence (P0A1E3 whole entry): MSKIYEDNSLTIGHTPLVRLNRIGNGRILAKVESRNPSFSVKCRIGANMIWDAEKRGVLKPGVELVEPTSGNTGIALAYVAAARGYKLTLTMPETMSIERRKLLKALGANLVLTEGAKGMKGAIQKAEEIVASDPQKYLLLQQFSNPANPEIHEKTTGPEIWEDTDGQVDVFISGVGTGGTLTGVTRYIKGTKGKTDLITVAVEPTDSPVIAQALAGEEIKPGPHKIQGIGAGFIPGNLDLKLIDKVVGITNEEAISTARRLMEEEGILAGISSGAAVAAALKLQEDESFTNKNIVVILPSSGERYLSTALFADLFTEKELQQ
# T3 sequence (P0A1E3 whole entry): as above
Structure (SMILES),"inhibition at 1000 µM [1, 10]",% inhibition OASS-B [4],inhibition at 1000 µM [4],"% inhibition OASS-A [1, 9]",other results
"O=C(O)c1ccn[nH]1 [Compound 4c, 1H-pyrazole-5-carboxylic acid]",> 90%,ns,82 ± 1%,,"inhibition at 1 µM [1, 9]: 9 ± 7%; % inhibition OASS-A ([1]; compound 1 mM): 94 ± 1%; Kd [2]: 272 ± 10 µM; LE (OASS-B) [2]: 0.61 kcal/mol/HA; Kd [3]: 122 ± 5 µM; LE (OASS-A) [3]: 0.67 kcal/mol/HA"
"O=C(O)c1ccn(-c2ccc(F)cc2)n1 [Compound 5g, 1–(4-fluorophenyl)-1H-pyrazole-3-carboxylic acid]",73 ± 1%,ns,36 ± 3%,ns,
"O=C(O)c1ccnn1C1CCCCC1 [Compound 4h, 1-cyclohexyl-1H-pyrazole-5-carboxylic acid]",57 ± 1%,ns,30 ± 1%,ns,
"O=C(O)c1ccnn1-c1ccc(Br)cc1 [Compound 4e, 1–(4-bromophenyl)-1H-pyrazole-5-carboxylic acid]",,ns,58 ± 2%,ns,"% inhibition OASS-A ([1]; compound 1 mM): 84 ± 1%; inhibition at 1000 µM [1, 11]: > 80%"
"O=C(O)c1ccnn1-c1ccccc1 [Compound 4b, 1-phenyl-1H-pyrazole-5-carboxylic acid]",66 ± 1%,,65 ± 1%,ns,inhibition at 1 µM [4]: 11 ± 3%
"O=C(O)c1ccc[nH]1 [Compound 14, 1H-pyrrole-2-carboxylic acid]",,,,,Kd [2]: 465 ± 50 µM; LE (OASS-B) [2]: 0.60 kcal/mol/HA; Kd [3]: 59 ± 11 µM; LE (OASS-A) [3]: 0.72 kcal/mol/HA
"O=C(O)c1ccn(-c2ccc(Br)cc2)n1 [Compound 5e, 1–(4-bromophenyl)-1H-pyrazole-3-carboxylic acid]",62 ± 1%,ns,35 ± 2%,ns,
"Cc1ccc(-n2nccc2C(=O)O)cc1 [Compound 4a, 1-(p-tolyl)-1H-pyrazole-5-carboxylic acid]",,ns,65 ± 2%,ns^b,"% inhibition OASS-A ([1]; compound 1 mM): 45 ± 3%; inhibition at 1000 µM [1, 11]: 50%"
"O=C(O)c1ccn(C2CCCCC2)n1 [Compound 5h, 1-cyclohexyl-1H-pyrazole-3-carboxylic acid]",79 ± 1%,ns,43 ± 3%,ns,
"C/C=C/[C@@H]1C[C@H]1C(=O)O (racemic) [Compound 1, (±)-trans-2-[(1E)-prop-1-en-1-yl]cyclopropanecarboxylic acid]",,,,,Kd ([5]; read-out: Kd): 1.46 µM
"O=C(O)c1nccs1 [Compound 16, thiazole-2-carboxylic acid]",,,,,Kd [2]: 338 ± 14 µM; LE (OASS-B) [2]: 0.60 kcal/mol/HA; Kd [3]: 52 ± 6 µM; LE (OASS-A) [3]: 0.74 kcal/mol/HA
"Cc1ccc(C[C@@]2(C(=O)O)C[C@H]2c2ccccc2)cc1 [Compound 2, (1S,2S)-1–(4-methylbenzyl)-2-phenylcyclopropanecarboxylic acid]",,,,,activity when tested against Salmonella in vitro [6]: did not show any activity; Kd ([5]; read-out: Kd-OASS): 0.028 µM; Kd [7]: 0.049 µM; permeability through the cell envelope [8]: poor permeability; LE (OASS-B) [2]: 0.50 kcal/mol/HA; LE (OASS-A) [3]: 0.52 kcal/mol/HA
"O=C(O)c1ccnn1-c1ccc(F)cc1 [Compound 4g, 1–(4-fluorophenyl)-1H-pyrazole-5-carboxylic acid]",95 ± 1%,,62 ± 1%,,"inhibition at 1 µM [1, 9]: 8 ± 1%; inhibition at 1 µM [4]: 14 ± 2%"
"O=C(O)c1ccn(-c2ccc(Cl)cc2)n1 [Compound 5d, 1–(4-chlorophenyl)-1H-pyrazole-3-carboxylic acid]",63 ± 1%,,63 ± 1%,ns,inhibition at 1 µM [4]: 15 ± 2%
"CC(C)(C)c1ccc(-n2ccc(C(=O)O)n2)cc1 [Compound 5f, 1–(4-(tert-butyl)phenyl)-1H-pyrazole-3-carboxylic acid]",81 ± 1%,,82 ± 1%,ns,inhibition at 1 µM [4]: 11 ± 6%
"O=C(O)c1ccnn1-c1ccc(Cl)cc1 [Compound 4d, 1–(4-chlorophenyl)-1H-pyrazole-5-carboxylic acid]",60 ± 2%,,56 ± 1%,ns,inhibition at 1 µM [4]: 9 ± 6%
"CC(C)(C)c1ccc(-n2nccc2C(=O)O)cc1 [Compound 4f, 1–(4-(tert-butyl)phenyl)-1H-pyrazole-5-carboxylic acid]",47 ± 1%,ns,52 ± 5%,ns,
